Reference: patent US9732087B2, “Diamino-pyridine, pyrimidine, and pyridazine modulators of the histamine H4 receptor” (JANSSEN PHARMACEUTICA NV, priority 2008, dated 2017)
Counter-ions that a name gives are not always drawn.

The compounds below were run against human H4 receptor (Homo sapiens (Human), UniProt Q9H3N8) (assay: Binding assay on recombinant human histamine H4 receptor ([3H]histamine competition, SK-N-MC cell membranes)). Conditions: membranes harvested with 96 well Brandel system; [3H]histamine 10 nM; average of results; read-out: Brandel Ki.
Sequence of human H4 receptor (Q9H3N8 whole entry): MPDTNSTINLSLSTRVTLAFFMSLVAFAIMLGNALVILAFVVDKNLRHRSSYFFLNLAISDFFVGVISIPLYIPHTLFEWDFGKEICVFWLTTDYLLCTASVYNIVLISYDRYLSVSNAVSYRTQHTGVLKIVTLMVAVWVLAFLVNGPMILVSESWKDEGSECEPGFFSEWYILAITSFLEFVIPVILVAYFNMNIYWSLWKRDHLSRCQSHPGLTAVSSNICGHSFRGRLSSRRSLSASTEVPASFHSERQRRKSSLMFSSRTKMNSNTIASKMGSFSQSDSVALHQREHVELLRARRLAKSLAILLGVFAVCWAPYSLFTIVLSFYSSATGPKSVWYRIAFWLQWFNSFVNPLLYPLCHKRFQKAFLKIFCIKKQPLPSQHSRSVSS
Summary of the method: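 Scintillation counting of filter-bound [3H]histamine after rapid harvesting on 0.5% PEI-treated GF/C filters with ice-cold Tris/EDTA washes. Receptor source: 30,000 g membrane pellets of SK-N-MC cells stably or transiently expressing human H4. Values shown as '>' are the top concentration tested.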

`CN[C@@H]1CCN(c2ccnc(NC3CC4CCC3C4)c2)C1` (stereo partly drawn) [Example 1, Bicyclo[2.2.1]hept-2-yl[4-((3R)-3-methylamino-pyrrolidin-1-yl)-pyridin-2-yl]amine dihydrochloride] gave a Ki of 1 nM.

Same assay, conditions: membranes harvested with cell harvester; [3H]histamine 10 nM; average of results; read-out: Cell Harvester Ki

Point of comparison: `CN[C@@H]1CCN(c2ccnc(NC3CC4CCC3C4)c2)C1` (stereo partly drawn) [Example 1, Bicyclo[2.2.1]hept-2-yl[4-((3R)-3-methylamino-pyrrolidin-1-yl)-pyridin-2-yl]amine dihydrochloride], Ki 0.5 nM. Against it:
- CN[C@@H]1CCN(c2cnnc(NCC3CCC4CC3C4(C)C)c2)C1 (stereo partly drawn) [Example 388, N-[(6,6-Dimethylbicyclo[3.1.1]hept-2-yl)methyl]-5-[(3R)-3-(methylamino)pyrrolidin-1-yl]pyridazin-3-amine] — 590-fold higher, 293 nM
- CN1CCN(c2ccnc(NC3CCOCC3)c2)CC1 [Example 223, 4-(4-Methylpiperazin-1-yl)-N-(tetrahydro-2H-pyran-4-yl)pyridin-2-amine] — 1400-fold higher, 723 nM
- CN[C@H]1CCN(c2cnnc(NCCCC(F)(F)F)c2)C1 [Example 389, 5-[(3S)-3-(Methylamino)pyrrolidin-1-yl]-N-(4,4,4-trifluorobutyl)pyridazin-3-amine] — 3500-fold higher, 1750 nM
- CN[C@H]1CCN(c2ccnc(NCC3CCCC3)c2)C1 [Example 227, N-(Cyclopentylmethyl)-4-[(3S)-3-(methylamino)pyrrolidin-1-yl]pyridin-2-amine] — 520-fold higher, 260 nM
- CC(C)(O)CNc1nccc(N2CCNCC2)n1 [Example 177, 2-Methyl-1-[(4-piperazin-1-ylpyrimidin-2-yl)amino]propan-2-ol] — 1000-fold higher, 523 nM
- CC(C)(O)CNc1cc(N2CC[C@@H](N)C2)ccn1 [Example 279, 1-({4-[(3R)-3-Aminopyrrolidin-1-yl]pyridin-2-yl}amino)-2-methylpropan-2-ol] — 550-fold higher, 276 nM
- CCCCNc1nccc(N2CC[C@@H](N)C2)n1 [Example 46, 4-[(3R)-3-Aminopyrrolidin-1-yl]-N-butylpyrimidin-2-amine] — 17-fold higher, 8.4 nM
- CC1(C)[C@H]2CC[C@H](CNc3cc(N4C[C@H]5CCN[C@H]5C4)ccn3)[C@@H]1C2 [Example 291, N-{[(1S,2S,5S)-6,6-Dimethylbicyclo[3.1.1]hept-2-yl]methyl}-4-[(3aR,6aR)-hexahydropyrrolo[3.4-b]pyrrol-5(1H)-yl]pyridin-2-amine] — 480-fold higher, 239 nM
- CN[C@H]1CCN(c2ccnc(NCCc3ccccc3)c2)C1 [Example 245, 4-[(3S)-3-(Methylamino)pyrrolidin-1-yl]-N-(2-phenylethyl)pyridin-2-amine] — 460-fold higher, 228 nM
- CNC1CN(c2ccnc(NCC(C)(C)CO)n2)C1 [Example 136, 2,2-Dimethyl-3-({4-[3-(methylamino)azetidin-1-yl]pyrimidin-2-yl}amino)propan-1-ol] — 390-fold higher, 193 nM
- N[C@@H]1CCN(c2ccnc(NCC3CCCCC3)n2)C1 [Example 197, 4-[(3R)-3-Aminopyrrolidin-1-yl]-N-(cyclohexylmethyl)pyrimidin-2-amine] — 35-fold higher, 17.3 nM
- CN[C@H]1CCN(c2ccnc(NC3C4CC5CC(C4)CC3C5)c2)C1 (stereo partly drawn) [Example 215, Adamantan-2-yl-[4-(3S)-(3-methylamino-pyrrolidin-1-yl)-pyridin-2-yl]-amine] — 140-fold higher, 69.6 nM
- COc1ccc(CNc2cc(N3CCNCC3)cnn2)cc1 [Example 347, N-(4-Methoxybenzyl)-5-piperazin-1-ylpyridazin-3-amine] — higher, > 10000 nM
- CNC1CN(c2cnnc(NCc3ccccn3)c2)C1 [Example 352, 5-[3-(Methylamino)azetidin-1-yl]-N-(pyridin-2-ylmethyl)pyridazin-3-amine] — higher, > 10000 nM
- CNC1CN(c2cnnc(NC3CCCC3)c2)C1 [Example 332, N-Cyclopentyl-5-[3-(methylamino)azetidin-1-yl]pyridazin-3-amine] — 3300-fold higher, 1660 nM
- N[C@@H]1CCN(c2ccnc(NCC3CC3)n2)C1 [Example 24] — 6.6-fold higher, 3.32 nM
- CN[C@@H]1CCN(c2ccnc(NCC(C)(C)CO)n2)C1 [Example 169, 2,2-Dimethyl-3-({4-[(3R)-3-(methylamino)pyrrolidin-1-yl]pyrimidin-2-yl}amino)propan-1-ol] — 19-fold higher, 9.67 nM
- CN1CCN(c2ccnc(NC[C@]34C[C@H]5C[C@H](C[C@H](C5)C3)C4)c2)CC1 [Example 255, Adamantan-1-ylmethyl-[4-(4-methyl-piperazin-1-yl)-pyridin-2-yl]amine] — 3900-fold higher, 1940 nM
- N[C@@H]1CCN(c2ccnc(NCC3CCCC3)n2)C1 [Example 123, 4-[(3R)-3-Aminopyrrolidin-1-yl]-N-(cyclopentylmethyl)pyrimidin-2-amine] — 4.1-fold higher, 2.04 nM
- CC(C)(C)CNc1cc(N2CC[C@@H](N)C2)cnn1 [Example 371, 5-[(3R)-3-Aminopyrrolidin-1-yl]-N-(2,2-dimethylpropyl)pyridazin-3-amine] — 260-fold higher, 130 nM
- CN1CCN(c2cnnc(NC3CCCC3)c2)CC1 [Example 407, N-Cyclopentyl-5-(4-methylpiperazin-1-yl)pyridazin-3-amine] — 1600-fold higher, 824 nM
- CNC1CN(c2ccnc(N[C@H]3C[C@H]4CC[C@]3(C)C4(C)C)n2)C1 [Example 126, 4-[3-(Methylamino)azetidin-1-yl]-N-[(1R,2S,4R)-1,7,7-trimethylbicyclo[2.2.1]hept-2-yl]pyrimidin-2-amine] — 40-fold higher, 19.8 nM
- NC1CN(c2ccnc(NCCCO)n2)C1 [Example 155, 3-{[4-(3-Aminoazetidin-1-yl)pyrimidin-2-yl]amino}propan-1-ol] — 1500-fold higher, 745 nM
- CCCCNc1nccc(N2CC[C@H](N)C2)n1 [Example 196, 4-[(3S)-3-Aminopyrrolidin-1-yl]-N-butylpyrimidin-2-amine] — 450-fold higher, 224 nM
- CC(C)CNc1nccc(N2CC[C@H](N)C2)n1 [Example 198, 4-[(3S)-3-Aminopyrrolidin-1-yl]-N-(2-methylpropyl)pyrimidin-2-amine] — 110-fold higher, 55 nM
- CCCCNc1cc(N2C[C@H]3CCN[C@H]3C2)cnn1 [Example 310, N-Butyl-5-[(3aR,6aR)-hexahydropyrrolo[3,4-b]pyrrol-5(1H)-yl]pyridazin-3-amine] — 1200-fold higher, 621 nM
- CN1CCN(c2ccnc(N[C@H]3C[C@H]4CC[C@]3(C)C4(C)C)c2)CC1 [Example 252, 4-(4-Methylpiperazin-1-yl)-N-[(1R,2S,4R)-1,7,7-trimethylbicyclo[2.2.1]hept-2-yl]pyridin-2-amine] — 380-fold higher, 190 nM
- CN[C@@H]1CCN(c2ccnc(NCC(C)(C)C)c2)C1 [Example 41, N-(2,2-Dimethylpropyl)-4-[(3R)-3-(methylamino)pyrrolidin-1-yl]pyridin-2-amine] — 4.4-fold higher, 2.2 nM
- CN[C@H]1CCN(c2cnnc(NCC3CC4CCC3C4)c2)C1 (stereo partly drawn) [Example 374, N-(Bicyclo[2.2.1]hept-2-ylmethyl)-5-[(3S)-3-(methylamino)pyrrolidin-1-yl]pyridazin-3-amine] — 600-fold higher, 298 nM
- CC(C)CNc1nccc(N2CC[C@@H](N)C2)n1 [Example 23, 4-[(3R)-3-Aminopyrrolidin-1-yl]-N-(2-methylpropyl)pyrimidin-2-amine] — 5.4-fold higher, 2.7 nM
- N[C@@H]1CCN(c2ccnc(NC3CCCCC3)c2)C1 [Example 274, 4-[(3R)-3-Aminopyrrolidin-1-yl]-N-cyclohexylpyridin-2-amine] — 21-fold higher, 10.6 nM
- COCCNc1cc(N2CC(N)C2)cnn1 [Example 335, 5-(3-Aminoazetidin-1-yl)-N-(2-methoxyethyl)pyridazin-3-amine] — higher, > 10000 nM
- c1cc(N2C[C@H]3CCN[C@H]3C2)nc(NCC2CCCCC2)n1 [Example 107, N-(Cyclohexylmethyl)-4-[(3aR,6aR)-hexahydropyrrolo[3,4-b]pyrrol-5(1H)-yl]pyrimidin-2-amine] — 140-fold higher, 69.9 nM
- N[C@H]1CCN(c2cnnc(NCC3CCCC3)c2)C1 [Example 317, 5-[(3S)-3-Aminopyrrolidin-1-yl]-N-(cyclopentylmethyl)pyridazin-3-amine] — 1900-fold higher, 930 nM
- CN1CCN(c2cnnc(NC3CC4CCC3C4)c2)CC1 (centres unmarked) [Example 406, N-Bicyclo[2.2.1]hept-2-yl-5-(4-methylpiperazin-1-yl)pyridazin-3-amine] — 360-fold higher, 178 nM
- CN1CCN(c2ccnc(NC34C[C@H]5C[C@@H](C3)C[C@@H](C4)C5)c2)CC1 [Example 219, Adamantan-1-yl-[4-(4-methyl-piperazin-1-yl)-pyridin-2-yl]-amine] — 380-fold higher, 188 nM
- CC1(C)[C@H]2CC[C@H](CNc3nccc(N4C[C@H]5CCN[C@H]5C4)n3)[C@@H]1C2 [Example 104, N-{[(1S,2S,5S)-6,6-Dimethylbicyclo[3.1.1]hept-2-yl]methyl}-4-[(3aR,6aR)-hexahydropyrrolo[3,4-b]pyrrol-5(1H)-yl]pyrimidin-2amine] — 2100-fold higher, 1050 nM
- CCCCNc1nccc(N2CCNCC2)n1 [Example 68, Butyl-(4-piperazin-1-yl-pyrimidin-2-yl)-amine] — 73-fold higher, 36.7 nM
- CCCCNc1nccc(N2CCN(C)CC2)n1 [Example 47, N-Butyl-4-(4-methylpiperazin-1-yl)pyrimidin-2-amine] — 66-fold higher, 33.2 nM
- CN[C@H]1CCN(c2ccnc(NC3CC3)c2)C1 [Example 235, N-Cyclopropyl-4-[(3S)-3-(methylamino)pyrrolidin-1-yl]pyridin-2-amine] — 820-fold higher, 409 nM
- CN[C@@H]1CCN(c2ccnc(NCC3CCCCC3)c2)C1 [Example 211, N-(Cyclohexylmethyl)-4-[(3R)-3-(methylamino)pyrrolidin-1-yl]pyridin-2-amine] — 3.4-fold higher, 1.68 nM
- N[C@@H]1CCN(c2cnnc(NCC3CC4CCC3C4)c2)C1 (stereo partly drawn) [Example 312, 5-[(3R)-3-Aminopyrrolidin-1-yl]-N-(bicyclo[2.2.1]hept-2-ylmethyl)pyridazin-3-amine] — 1100-fold higher, 547 nM
- CNC1CN(c2ccnc(NCc3ccccn3)c2)C1 [Example 297, 4-[3-(Methylamino)azetidin-1-yl]-N-(pyridin-2-ylmethyl)pyridin-2-amine] — 3100-fold higher, 1560 nM
- CCCCNc1cc(N2CCNCC2)cnn1 [Example 356, N-Butyl-5-piperazin-1-ylpyridazin-3-amine] — 3200-fold higher, 1600 nM
- COCCNc1nccc(N2CC[C@@H](N)C2)n1 [Example 59, 4-[(3R)-3-Aminopyrrolidin-1-yl]-N-(2-methoxyethyl)pyrimidin-2-amine] — 380-fold higher, 190 nM
